Source: patent US20250320202A1, “PRMT5 INHIBITOR, PREPARATION METHOD THEREFOR, AND PHARMACEUTICAL USE THEREOF” (Abbisko Therapeutics Co., Ltd., priority 2022, published 2025)

How the values were obtained:
[1] = system: HCT116 MTAP knockout cells; test: Human colon cancer HCT116 cell proliferation inhibition test (CellTiter-Glo, 6 days), MTAP knockout cells; type: cell-based; settings: HCT-116, 144 h
Method in brief: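 Cells seeded overnight in McCoy's 5A with 10% FBS, then exposed to compound from 10 μM top concentration, 4-fold dilutions, 9 points, for 6 days at 37 °C, 5% CO2. Viability by CellTiter-Glo luminescence; IC50 from 4-parameter dose-response curve.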

[2] = system: HCT116 MTAP wild-type cells; test: Human colon cancer HCT116 cell proliferation inhibition test (CellTiter-Glo, 6 days), MTAP wild-type cells; type: cell-based; settings: HCT-116, 144 h
Description: 1. HCT116 MTAP knockout and MTAP wild-type cells were plated in 96-well flat bottom plates, and cultured overnight with McCoy's 5A medium containing 10% fetal bovine serum+1% penicillin-streptomycin at 37° C. and 5% CO2.
2. On the next day, the compound was dissolved with DMSO, diluted with DMSO and medium successively and transferred to the cell plate. The final concentration of the compound was 10 μM, the compound was diluted 4 times, with 9 concentration gradients, and DMSO control was added.
3. Cells that have not been treated with the compound were removed. CellTiter-Glo Luminescent Cell Viability Assay (Promega) was used to detect cell viability, the operation was performed with reference to the package insert of the kit, and then the cell plate was placed on EnVision Multilabel Reader to detect the cold light signal.
4. Meanwhile, the cell plate treated with the compound was cultured at 37° C. and 5% CO2 for 6 consecutive days.
5. Then, CellTiter-Glo was also used to detect cell viability.
6. Finally, the four-parameter dose-response curve module of GraphPad Prism v 9.2.0 software was used to plot the dose-response curve and calculate the IC50 for proliferation inhibition (unit: nM).

[3] = Pharmacokinetic assay in mice, blood-brain barrier penetration analysis (Kp); type: in vivo; settings: male, mouse, ICR mice, PO single dose 10 mg/kg, brain vs plasma, read-out: Kp (4 h after administration)
Description: The purpose of this trial is to study the pharmacokinetic behavior of some compounds of the present invention, and the administration method is: ICR mice were orally administered (PO) a single dose, at a dose of 10 mg/kg.
ICR mice male N=3 original source: Shanghai Sippr-Bk Lab Animal Co., Ltd.
The compounds were weighed and dissolved in 20% PG+10% Solutol HS15+70% pH 3 citrate buffer, respectively, shaken well and sonicated to prepare colorless clear solutions. 9 mice were administered orally after an overnight fast. The dose was 10 mg/kg.
• 1) About 90 μL blood was collected via the submandibular vein per time point, heparin sodium anticoagulant was added, the sample was placed on ice after collection, and plasma was centrifuged within 1 hour (centrifugation conditions: 8,000 rpm, 6 minutes, 2-8° C.). • 2) The blood collection time points were 1, 4, and 24 h. The samples were stored in a refrigerator at −20° C. • 3) The plasma sample was 40 μL, 160 μL of ice-cold acetonitrile containing internal standard was added, vortexed for 3 minutes, and centrifuged at 11,000 rpm for 5 minutes. • 4) 100 μL of the supernatant was taken and added to 100 μL of water, 5 μL of the sample was taken and injected into LC/MS/MS for analysis.
AUC or concentration in brain or plasma measured by using the above method was used to calculate the Kp. Kp refers to the relationship between drug concentrations in brain and blood and is used to evaluate the ability of a drug to penetrate the blood-brain barrier. Post-dose Kp was calculated by the following formula: […]

Row | IC50 [1] [µM] | IC50 [2] [µM] | Kp at 4 h [3] | SMILES
1 | 0.021 | 0.176 | 0.7 | Nc1nc2cc(Cl)c(C(=O)N(CC3CC3)[C@@H]3COc4cc(C(F)(F)F)ccc43)cc2c2cnccc12 [Example 235, (S)-5-amino-8-chloro-N-(cyclopropylmethyl)-N-(6-(trifluoromethyl)-2,3-dihydrobenzofuran-3-yl)benzo[c][2,6]naphthyridin-9-carboxamide]
2 | 0.025 | 0.702 | 0.1 | CN(C(=O)c1ccc2nc(N)c3ccncc3c2c1)[C@@H]1COc2cc(C(F)(F)F)ccc21 [Reference Compound 2, reference compound]
